Experimental data: publication PMC4976201, “Total synthesis of teixobactin” (Nature Communications, 2016)

Tested on: Gram-positive bacterial pathogens
Assay: Antibacterial activity on Gram-positive bacteria, stated in words
Type: cell-based
Settings: MIC on various Gram-positive bacteria strains
Source text: Synthetic teixobactin and its analogues were subjected to the assessment of their antimicrobial activities by determining their minimal inhibitory concentration on various Gram-positive bacteria strains including methicillin-susceptible S. aureus strain ATCC29213 and methicillin-resistant S. aureus clinical isolates. […] In this effort, the original stereo-configuration of the amino-acid residue should be thoroughly scrutinized. From our study, it is encouraging to find that Orn-containing teixobactin analogues maintained modest antibacterial activity. Since Orn is readily available as compared with L-allo-End and the synthesis of the Orn-containing cyclic depsipeptide (7–11) gave the best yield among all the analogue syntheses, which is amenable to a large-scale synthesis. Through the above-developed convergent synthetic strategy, various linear hexapeptide (1–6), such as 11, can be readily prepared and ligated to the Orn-containing the cyclic depsi-pentapeptide (7–11) to investigate the contribution of each amino acid in the linear peptide fragment towards the antibacterial activity, which will lead to the optimal structure for the development of teixobactin with improved properties.

| SMILES | antibacterial activity compared with natural teixobactin |
| --- | --- |
| CC[C@@H](C)[C@@H](NC(=O)[C@@H](CCC(N)=O)NC(=O)[C@H](CO)NC(=O)[C@@H](NC(=O)[C@@H](Cc1ccccc1)NC)[C@@H](C)CC)C(=O)N[C@H](C(=O)N[C@@H](CO)C(=O)N[C@H]1C(=O)N[C@@H](C)C(=O)N[C@@H](CCCNC(=N)N)C(=O)N[C@@H]([C@@H](C)CC)C(=O)O[C@H]1C)[C@@H](C)CC [compound 14] | reduced antibacterial activities |
| CC[C@H](C)[C@H](NC(=O)[C@@H](Cc1ccccc1)NC)C(=O)N[C@@H](CO)C(=O)N[C@H](CCC(N)=O)C(=O)N[C@@H](C(=O)N[C@H](C(=O)N[C@@H](CO)C(=O)N[C@H]1C(=O)N[C@@H](C)C(=O)N[C@@H](CCCN)C(=O)N[C@@H]([C@@H](C)CC)C(=O)O[C@H]1C)[C@@H](C)CC)[C@@H](C)CC [compound 16] | reduced antibacterial activities |
